The source of these data is patent publication US5521293A (Lever Brothers Company, Division of Conopco, Inc., priority 1995, dated 1996).

Like-named read-outs stand apart in the source and are kept apart here. Bounds are passed on as bounds.

Series [1] in a line: Effectiveness in reducing surface tension (surface pressure at the CMC). The series is classed as physicochemical. Conditions: 60° C., estimated by linear extrapolation. The source says:
Effectiveness of a surfactant in reducing surface tension is defined as the maximum reduction in surface tension that can be obtained regardless of the bulk phase surfactant concentration.
As mentioned before, surface tension reduction depends on the replacement of water molecules at the interface by surfactant molecules, therefore the effectiveness of a surfactant in reducing interfacial surface tension should reflect the saturated concentration of surfactant at the interface relative to that in bulk liquid phase. During this process the surface tension of water steadily decreases as bulk phase surfactant concentration increases. This will continue until the concentration reaches the critical micelle concentration (CMC), above which the surface tension remains nearly unchanged and the interface is saturated with surfactant. The surface tension at the CMC is therefore very close to the minimum interfacial tension or maximum surface pressure that the system can achieve. The surface pressure at this point, cmc, is a suitable measure of the effectiveness of a surfactant in reducing surface tension and is given as:
cmc =20+2.3 nRT(Γmax) log[CMC/C20 ]
n=1 which represents the number of ions whose surface concentration changes with the change in liquid phase surfactant concentration.
R=8.314×107 ergs/mol K (Gas Constant)
Γmax =-1/2·303RT(∂γ/∂log [Conc])T=3.85×10^-10 mole/cm^2
CMC/C20 =is the ratio of the critical micelle concentration to the bulk phase surfactant concentration necessary to reduce the surface tension of water by 20 dyn/cm.
The effectiveness of various surfactants in reducing surface tension ( cmc) were determined and are set forth below: […]

Series [2] in a line: Effectiveness of adsorption at the interface (surface excess concentration at surface saturation). Conditions: 60° C., estimated by linear extrapolation. The series is classed as physicochemical. An excerpt: The surface excess concentration at surface saturation (Γmax) is defined as a measure of the effectiveness of surfactant adsorption at the water/air interface and represents the maximum value to which adsorption can be obtained. Effectiveness of adsorption is related to the interfacial area occupied by the surfactant molecule. The smaller the effective cross-sectional area of a surfactant at the interface, the greater its effectiveness of adsorption. The effectiveness of adsorption is an important factor in determining surfactant properties such as detergency, foaming, wetting or emulsification. While not wishing to be bound by theory, it is believed that surfactants that absorb effectively at the interface tend have tightly packed coherent interfacial films and often provide better surfactant benefits than those with loosely packed noncoherent films. The effectiveness of adsorption of C8 /C10 oxypropyl D-gluconarnide was determined using the Gibbs equation given as:
Γmax =-1/2.303RT(∂γ/∂log[Conc])T
(∂γ/∂log[Conc)T =-24.574971 ergs/cm^2 (which is equivalent to the
slope of a plot of γ versus log[Conc]) R=8.3 14×10^7 ergs/mol K (Gas Constant)
The surface excess concentration at surface saturation (Γmax) of various surfactants were determined and are set forth below: […]

Series [3] is described as follows: Area per molecule at the interface. The series is classed as physicochemical. Conditions: 60° C., estimated by linear extrapolation. An excerpt:
The area per molecule of a surfactant at the water/air interface provides information on the degree of packing and the orientation of the adsorbed surfactant molecule. While not wishing to be bound by theory, it is believed that surfactants that have small area per molecule values tend to pack more closely at the interface than those with large area per molecule values. From the surface excess concentration at surface saturation (Γmax), the area per molecule (am) of C8 /C10 oxypropyl D-gluconamide was determined and is given by:
am =1×10^16 /Nav Γmax
Γmax =-1/2·303RT(∂γ/∂log[Conc])T
NAV =6.0221×10^23 per gram mole (Avogadro's Number)
The area per molecule (am) of several surfactants were-determined and are set forth below: […]

For series [4] the following is noted: cited from earlier work.
The conditions of series [5]: cited from earlier work. The source holds these as a separate data set.
The conditions of series [6]: cited from earlier work. This is another data set of the same source.
The nature of series [7]: Krafft point of aqueous dispersion of aldonamide. In kind it is physicochemical. The following applies: for Krafft Point (0.1%): 0.1% in water by weight; for Krafft Point (1.0%): 1.0% in water by weight. The procedure:
The temperature at and above which surfactants begin to form micelles instead of precipitates is referred to as the Krafft point (Tk) and at this temperature the solubility of a surfactant becomes equal to its CMC (numerical value at which micelles are formed).
The Krafft point was measured by preparing 650 ml of a 0.1% or 1.0% dispersion of aldonamide in water by weight. If the surfactant was soluble at room temperature, the solution was slowly cooled to 0° C. […] (less than zero). If it precipitated out of solution, the temperature at which precipitation occurs was taken as the Krafft point.
If the surfactant was insoluble at :room temperature, the dispersion was slowly heated until the solution became homogeneous. It was then slowly cooled until precipitation occurred. The temperature at which the surfactant precipitates out of solution upon cooling was taken as the Krafft point.

The next series can be described thus: Water solubility. The series is classed as physicochemical. The following applies: in words.
A short description of series [8]: Ross-Miles foam height. The series is classed as physicochemical. More on the design: key: X: low water solubility, foam height cannot be measured. Conditions: Example 84; for Foam Height Final (symbol): after 10 minutes. As for the experimental part:
(§1) Since most of the foaming data on surfactants is typically obtained by the Ross-Miles Foam Height Assay (Ross, J. and Miles, G. D. Am Soc. for Testing Material Method D1173-63 Philadelphia, Pa. (1953); Oil & Soap (1958) 62:1260) the foaming ability of these surfactants were acquired using this method.
(§2) In the Ross-Miles method, 200 mL of a surfactant solution contained in a pipette of specified dimensions with a 2.9-mm-i.d. orifice is allowed to fall 90 cm onto 50 mL of the same solution contained in a cylindrical vessel maintained at a given temperature by means of a water jacket. The height of the foam produced in the cylindrical vessel is read immediately after all the solution has run out of the pipette and then again after a given amount of time.
(§3) Using this method, the foam production (initial foam height in mm) and foam stability (final foam height after 10 minutes in mm) were measured at 0.1% aldonamide concentration, 40° C. and 0 ppm (parts per million) hardness. Aldonamides that were not soluble at 40° C. were measured at about 5°-10° C. above their Krafft points.

Series [9] can be described thus: Ross-Miles foam height. The series is classed as physicochemical. Conditions: initial; 0.1% aldonamide, 40° C. (or about 5°-10° C. above Krafft point if not soluble), 0 ppm hardness. As for the experimental part:
as §1, §2, §3

Take `CCCCCCCCCCCCOCCOCCOCCOCCOCCOCCOCCO` [Dodecylhepta(oxyethylene) Ether]: the entries for the “surface pressure at the CMC (cmc)” value in series [1], in series [4] (25° C.) and in series [4] (40° C.) were 36.8 dyn/cm, 38.3 dyn/cm and 38.5 dyn/cm, respectively. For the same molecule, the results for the “surface excess concentration at surface saturation (Γmax)” value (“surface excess concentration” for short) in series [2], in series [5] (25° C.) and in [5] (40° C.) were 2.71 × 10^-10 mole/cm^2, 2.90 × 10^-10 mole/cm^2 and 2.77 × 10^-10 mole/cm^2, respectively. Moreover, the “area per molecule (am)” value in [3] is recorded as 61.0 Å^2; in series [6] (25° C.), 57.3 Å^2; in series [6] (40° C.), 59.9 Å^2.
On to `CCCCCCCCCCCCOCCOCCOCCOCCOCCOCCOCCOCCO` [Dodecylocta(oxyethylene) Ether], for which the results for the “surface pressure at the CMC (cmc)” value in series [1], in [4] (25° C.) and in series [4] (40° C.) were 36.3 dyn/cm, 37.2 dyn/cm and 37.3 dyn/cm, respectively. Besides, the “surface excess concentration” value in series [2] is on record as 2.40 × 10^-10 mole/cm^2; in [5] (25° C.) it was 2.52 × 10^-10 mole/cm^2; in series [5] (40° C.) it was 2.46 × 10^-10 mole/cm^2. For the same molecule, the “area per molecule (am)” value was 69.0 Å^2 in series [3], 66.0 Å^2 in [6] (25° C.) and 67.4 Å^2 in [6] (40° C.).
For `CCCCCCCCCCCCOCCOCCOCCOCCOCCO` [Dodecylpenta(oxyethylene) Ether], the “surface pressure at the CMC (cmc)” value is listed as 40.7 dyn/cm in [1], 41.5 dyn/cm in series [4] (25° C.) and 41.2 dyn/cm in series [4] (40° C.). In addition, the “surface excess concentration” value in series [2] is 3.16 × 10^-10 mole/cm^2; in series [5] (25° C.) it was 3.31 × 10^-10 mole/cm^2; in series [5] (40° C.), 3.28 × 10^-10 mole/cm^2. Moreover, the “area per molecule (am)” value in series [3] is recorded as 52.3 Å^2; in [6] (25° C.), 50.1 Å^2; in series [6] (40° C.), 50.6 Å^2.
With `CCCCCCCCCCCCOCCOCCOCCOCCO` [Dodecyltetra(oxyethylene) Ether], the “surface pressure at the CMC (cmc)” value in series [1] is on record as 40.7 dyn/cm; in [4] (25° C.) it was 43.4 dyn/cm; in series [4] (40° C.) it was 42.0 dyn/cm. Moreover, the entries for the “surface excess concentration” value in [2], in series [5] (25° C.) and in series [5] (40° C.) were 3.01 × 10^-10 mole/cm^2, 3.63 × 10^-10 mole/cm^2 and 3.41 × 10^-10 mole/cm^2, respectively. For the same molecule, the “area per molecule (am)” value in series [3] was 53.3 Å^2; in [6] (25° C.), 45.7 Å^2; in [6] (40° C.), 48.7 Å^2.
Turning to `CCCCCCCCCCCCOCCOCCOCCO` [Dodecyltri(oxyethylene) Ether], the results for the “surface pressure at the CMC (cmc)” value in series [1], in series [4] (25° C.) and in [4] (40° C.) were 41.4 dyn/cm, 44.1 dyn/cm and 43.1 dyn/cm, respectively. The entries for the “surface excess concentration” value in series [2], in [5] (25° C.) and in [5] (40° C.) were 3.83 × 10^-10 mole/cm^2, 3.98 × 10^-10 mole/cm^2 and 3.90 × 10^-10 mole/cm^2, respectively. Also, the entries for the “area per molecule (am)” value in [3], in [6] (25° C.) and in series [6] (40° C.) were 45.4 Å^2, 41.7 Å^2 and 42.5 Å^2, respectively.
Consider `CCCCCCCCCCCCNC(=O)[C@H](O)[C@H](O)[C@@H](O)[C@@H](O)[C@H](O)CO` [GG, C12 D-Glycero-L-Mannoheptonamide], for which the “Krafft Point (0.1%)” value in series [7] was above 100 °C. The water solubility result in the series “Water solubility” is “Insoluble”.
On to `CCCCCCCCCCCCNC(=O)[C@H](O)[C@@H](O)[C@@H](O)[C@H](O)CO` [J, C12 D-Galactonamide], for which, in [7], the “Krafft Point (0.1%)” value was above 100 °C. The water solubility result in the series “Water solubility” was “Insoluble”.
The like results for `CCCCCCCCCCCCNC(=O)[C@@H](O)[C@H](O)[C@H](O)[C@@H](O)CO` [K, C12 L-Galactonamide] were, in that order, above 100 °C and “Insoluble”.
The like results for `CCCCCCCCCCCCNC(=O)[C@H](O)[C@H](O)[C@@H](O)[C@@H](O)CO` [L, C12 L-Mannonamide] were, in that order, above 100 °C and “Insoluble”.
As for `CCCCCCCCCCCCCCCNC(=O)[C@H](O)[C@@H](O)[C@H](O[C@@H]1O[C@H](CO)[C@H](O)[C@H](O)[C@H]1O)[C@H](O)CO` [SS, C15 D-Lactobionamide], the “Krafft Point (1.0%)” value in series [7] was found to be 84 °C. Also, in the series “Ross-Miles foam height [8]”, the “Foam Height Final (symbol)” value was “X” and the “Foam Height Initial (symbol)” value was “X”.
Take `CCCCCCCCCCCCCCCCCCNC(=O)[C@H](O)[C@@H](O)[C@H](O[C@@H]1O[C@H](CO)[C@H](O)[C@H](O)[C@H]1O)[C@H](O)CO` [UU, C18 D-Lactobionamide]: the “Krafft Point (1.0%)” value in series [7] amounted to 82 °C. Moreover, in the series “Ross-Miles foam height [8]”, the “Foam Height Final (symbol)” value is listed as “X” and the “Foam Height Initial (symbol)” value was “X”.
In the case of oleylaminopropyl D-lactobionamide [DDD], the “Krafft Point (1.0%)” value in series [7] was below 0 °C. For the same molecule, the “Foam Height Initial” value in the series “Ross-Miles foam height [9]” is on record as 169 mm.
